Experimental findings from patent publication US9101611B1, “Use of sulfonylurea (Glimepiride) to lower blood glucose” (priority 2014, dated 2015) are described below.

A short description of the assay: Stopping Glimepiride tablets after secondary failure, then resuming; effect on blood glucose. It counts as in vivo, human. As to conditions: then resumed. From the text: From new research, I found a new usage of sulfonylurea drug Glimepiride when secondary failure occurs. […] It is likely that recovery works because stopping taking the drug fools the human body to assume like the first day taking it which it is claimed.
Since pre-diabetes and/or diabetes have used sulfonylurea drugs since the mid-1950s (1), there is no new matter or invention of sulfonylurea drugs in this patent application. The newness in this patent application is the usage of sulfonylurea drug like Glimepiride that fails to work when secondary failure occurs by stopping taking the tablet for 3 or 5 days which automatically also lower blood glucose and then resuming taking it that works like the first day taking it. In essence, it prevents the patient from taking more dosage of medication and/or changing to another different medication.

Molecules are shown by their SMILES.

As to `CCC1=C(C)CN(C(=O)NCCc2ccc(S(=O)(=O)NC(=O)N[C@H]3CC[C@H](C)CC3)cc2)C1=O` [Glimepiride], the “effectiveness to lower blood glucose” value (tablets stopped for 3 days) was “recovers Glimepiride's effectiveness to lower blood glucose like the first day taking it”. Further, the recovery effectiveness result (tablets stopped for 5 days) is recorded as “recovery effectiveness was first detected”.
